Experimental data as given in ChEMBL document CHEMBL1158438, “Discovery and structure-guided drug design of inhibitors of 11beta-hydroxysteroid-dehydrogenase type I based on a spiro-carboxamide scaffold” (Bioorg Med Chem Lett, 2009).

Assays:
[1] = molecular target: T1, 11-beta-hydroxysteroid dehydrogenase 1 (Homo sapiens, UniProt P28845); test: Inhibition of human 11beta-HSD1
[2] = molecular target: 11-beta-hydroxysteroid dehydrogenase 1 (Mus musculus, UniProt P50172); test: Inhibition of 11beta-HSD1 in mouse liver microsomes fraction; parameters: species or system Microsome
[3] = molecular target: T2, 11-beta-hydroxysteroid dehydrogenase type 2 (Homo sapiens, UniProt P80365); test: Inhibition of human recombinant 11beta-HSD2 expressed in Escherichia coli by HTRF assay
T2 sequence (P80365 whole entry): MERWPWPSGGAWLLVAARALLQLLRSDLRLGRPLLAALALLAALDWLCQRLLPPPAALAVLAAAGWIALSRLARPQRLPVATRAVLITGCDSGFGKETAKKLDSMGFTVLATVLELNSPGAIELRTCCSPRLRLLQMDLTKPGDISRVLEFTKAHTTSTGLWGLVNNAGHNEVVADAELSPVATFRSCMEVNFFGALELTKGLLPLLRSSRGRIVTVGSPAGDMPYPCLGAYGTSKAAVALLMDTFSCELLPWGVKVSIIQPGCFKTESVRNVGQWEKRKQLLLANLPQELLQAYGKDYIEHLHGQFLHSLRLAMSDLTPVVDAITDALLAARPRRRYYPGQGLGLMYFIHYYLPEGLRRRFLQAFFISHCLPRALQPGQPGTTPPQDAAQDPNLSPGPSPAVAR

[4] = molecular target: T1, 11-beta-hydroxysteroid dehydrogenase 1
Target sequence in this assay (P28845 whole entry, looked up): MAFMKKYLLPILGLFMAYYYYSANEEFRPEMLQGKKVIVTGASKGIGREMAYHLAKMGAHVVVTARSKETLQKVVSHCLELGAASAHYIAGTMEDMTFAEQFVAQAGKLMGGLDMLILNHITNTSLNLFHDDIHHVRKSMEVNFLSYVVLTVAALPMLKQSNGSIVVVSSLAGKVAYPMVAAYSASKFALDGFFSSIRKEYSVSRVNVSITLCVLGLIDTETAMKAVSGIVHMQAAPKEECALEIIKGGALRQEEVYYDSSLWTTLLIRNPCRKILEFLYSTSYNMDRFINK

[5] = molecular target: T1, 11-beta-hydroxysteroid dehydrogenase 1; test: Inhibition of human recombinant 11beta-HSD1 expressed in Escherichia coli by HTRF assay
Target sequence in this assay (P28845 whole entry): as the sequence (P28845 whole entry, looked up) above

Homo sapiens = organism: Homo sapiens; test: Selectivity ratio, IC50 for human recombinant 11beta-HSD2 to IC50 for human recombinant 11beta-HSD1

Chain of 11-beta-hydroxysteroid dehydrogenase 1 (Mus musculus, UniProt P50172) (P50172 whole entry): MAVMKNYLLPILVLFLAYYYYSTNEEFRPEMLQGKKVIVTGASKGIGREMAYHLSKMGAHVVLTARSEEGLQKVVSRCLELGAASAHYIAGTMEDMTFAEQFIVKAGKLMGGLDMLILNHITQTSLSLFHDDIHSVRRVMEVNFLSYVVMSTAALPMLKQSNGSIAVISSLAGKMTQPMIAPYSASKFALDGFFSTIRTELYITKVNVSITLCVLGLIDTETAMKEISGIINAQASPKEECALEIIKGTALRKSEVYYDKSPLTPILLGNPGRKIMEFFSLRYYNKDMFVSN

In the case of `O=C1CC2(CCN(C(=O)C3(c4ccccc4)CC3)CC2)Oc2ccc(F)cc21`, the BEI [1] is reported as 14.8 kDa-1 and the IC50 [1] is reported as 2500 nM.

For `O=C(N1CCC2(CCc3ccccc32)C1)C1(c2ccc(Cl)cc2)CC1` (stereo not given), the IC50 [2] was 2600 nM, the IC50 [3] was > 100000 nM and the BEI [4] was 21.6 kDa-1.

For `O=C(N1CCC2(CCCc3ccccc32)C1)C1(c2ccc(Cl)cc2)CC1` (stereo not given), the IC50 [5] was 22 nM, the IC50 [2] was 3400 nM and the IC50 [3] was > 100000 nM. For the same molecule, the Ratio IC50 (Homo sapiens) was > 4500 and the BEI [4] was 20.9 kDa-1.

With `O=C(N1CCC2(CCCCC2)C1)C1(c2ccccc2)CC1` the IC50 [5] was 0.5 nM, the IC50 [2] was 377 nM and the IC50 [3] was > 100000 nM. For the same molecule, the Ratio IC50 (Homo sapiens) was > 200000 and the BEI [4] was 32.7 kDa-1.

In the case of `O=C(N1CCC2(CCCCC2)C1)C1(c2ccc(Cl)cc2)CC1`, the IC50 [5] is reported as 6 nM, the IC50 [2] is reported as 3400 nM and the IC50 [3] is reported as > 100000 nM. For the same molecule, the Ratio IC50 (Homo sapiens) was > 16000 and the BEI [4] was 25.9 kDa-1.
